Measured values taken from US12257237B2 (priority 2017, dated 2025).
“And” between values parts separate entries of the source, which are not always exact repeats. Identical values can stand only once.

Assays:
[1] = Drug tolerability (body weight) in DD013 dedifferentiated liposarcoma xenograft model; assay type: in vivo, Athymic nude mice; settings: for BWL % / Mouse body weight, Mean: Doxo (8 mg/kg)
Method: (§1) Experiments were performed with female Athymic nude mice, 9-10 weeks old obtained from Harlan Laboratories (Udine, Italy). They were maintained under Specific Pathogen Free conditions with constant temperature and humidity, according to the institutional guidelines.
(§2) Tumour growth mice was monitored two/three times a week (depending on tumour growth rate, to avoid unnecessary stress to the animals) by Vernier caliper. Mice were sacrificed when tumour reached a mean weight of 2±0.5 gr. The antitumour activity will be expressed as T/C %, where T and C were the mean tumour weight of treated and control groups, respectively. Mice were monitored daily and weighted at least two times a week. Tolerability was evaluated on the basis of body weight loss (BWL) and clinical observation.

[2] = system: DD013 dedifferentiated liposarcoma; test: Antitumour activity in DD013 dedifferentiated liposarcoma xenograft model; assay type: in vivo, Athymic nude mice; settings: for DD0113 tumour weight, Mean / DD0113 tumour weight, individual mouse: Doxorubicin 8 mg/kg q7dx2
Method: as §1, §2
Statistical analysis was performed with GraphPad Prism version 6.01 software (GraphPad software, Inc., La Jolla, CA, USA). ANOVA test was performed to evaluate if there were statistically significant differences between treated and control groups.
Briefly, xenografts were obtained by transplanting 3-4 mm tumour fragments s.c. in the flanks of mice. The growing tumour masses were measured with the aid of a Vernier caliper, and the tumour weights (TW, 1 mm^3=1 mg) were calculated by the formula: length×(width) 2/2. When tumour load achieved about 200-400 mg, mice were randomized into the experimental groups.

Compound: COc1cccc2c1C(=O)c1c(O)c3c(c(O)c1C2=O)C[C@@](O)(C(=O)CO)C[C@@H]3O[C@H]1C[C@H](N)[C@H](O)[C@H](C)O1 [Doxo]
- BWL % ([1]; day 23 from inoculum): 0.0%
- Mouse body weight, Mean ([1]; day 23 from inoculum): 23.7 g
- BWL % ([1]; day 26 from inoculum): −2.6%
- Mouse body weight, Mean ([1]; day 26 from inoculum): 23.0 g
- BWL % ([1]; day 29 from inoculum): −0.3%
- Mouse body weight, Mean ([1]; day 29 from inoculum): 23.6 g
- BWL % ([1]; day 33 from inoculum): −5.2%
- Mouse body weight, Mean ([1]; day 33 from inoculum): 22.4 g
- BWL % ([1]; day 36 from inoculum): −1.7%
- Mouse body weight, Mean ([1]; day 36 from inoculum): 23.3 g
- BWL % ([1]; day 40 from inoculum): 0.7%
- Mouse body weight, Mean ([1]; day 40 from inoculum): 23.8 g
- BWL % ([1]; day 43 from inoculum): 4.0%
- Mouse body weight, Mean ([1]; day 43 from inoculum): 24.6 g
- BWL % ([1]; day 47 from inoculum): 8.4%
- Mouse body weight, Mean ([1]; day 47 from inoculum): 25.7 g
- BWL % ([1]; day 50 from inoculum): 5.1%
- Mouse body weight, Mean ([1]; day 50 from inoculum): 24.9 g
- BWL % ([1]; day 54 from inoculum): 5.5%
- Mouse body weight, Mean ([1]; day 54 from inoculum): 25.0 g
- BWL % ([1]; day 58 from inoculum): 5.8%
- Mouse body weight, Mean ([1]; day 58 from inoculum): 25.0 g
- BWL % ([1]; day 62 from inoculum): 8.9%
- Mouse body weight, Mean ([1]; day 62 from inoculum): 25.8 g
- BWL % ([1]; day 65 from inoculum): 7.4%
- Mouse body weight, Mean ([1]; day 65 from inoculum): 25.4 g
- Mouse body weight, Mean ([1]; day 69 from inoculum): 26.6 g
- BWL % ([1]; day 72 from inoculum): 10.0%
- Mouse body weight, Mean ([1]; day 72 from inoculum): 26.0 g
- BWL % ([1]; day 75 from inoculum): 10.3%
- Mouse body weight, Mean ([1]; day 75 from inoculum): 26.1 g

Compound: COc1cccc2c1C(=O)c1c(O)c3c(c(O)c1C2=O)C[C@@](O)(C(=O)CO)C[C@@H]3O[C@H]1C[C@H](N)[C@H](O)[C@H](C)O1 [Doxorubicin, reference compound]
- optimal T/C ([2]; 8 mg/kg i.v. q7dx2): 34.1%
- effect on tumour growth ([2]; 8 mg/kg q7dx2): No arrest of tumour growth was observed
- DD0113 tumour weight, Mean ([2]; day 23 from inoculum): 199.3 mg
- DD0113 tumour weight, individual mouse ([2]; day 23 from inoculum): 302.2 mg and 277.0 mg and 253.6 mg and 228.6 mg and 196.0 mg and 178.0 mg and 147.0 mg and 114.2 mg and 97.6 mg
- DD0113 tumour weight, Mean ([2]; day 26 from inoculum): 295.8 mg
- DD0113 tumour weight, individual mouse ([2]; day 26 from inoculum): 464.9 mg and 410.3 mg and 365.9 mg and 384.0 mg and 308.8 mg and 283.4 mg and 232.9 mg and 87.4 mg
- DD0113 tumour weight, Mean ([2]; day 29 from inoculum): 336.6 mg
- DD0113 tumour weight, individual mouse ([2]; day 29 from inoculum): 492.1 mg and 380.4 mg and 478.9 mg and 477.1 mg and 398.0 mg and 313.2 mg and 252.9 mg and 147.9 mg and 89.3 mg
- DD0113 tumour weight, Mean ([2]; day 33 from inoculum): 409.1 mg
- DD0113 tumour weight, individual mouse ([2]; day 33 from inoculum): 566.5 mg and 526.0 mg and 691.7 mg and 549.0 mg and 444.0 mg and 344.6 mg and 295.0 mg and 150.3 mg
- DD0113 tumour weight, Mean ([2]; day 36 from inoculum): 425.8 mg
- DD0113 tumour weight, individual mouse ([2]; day 36 from inoculum): 549.6 mg and 572.5 mg and 610.4 mg and 519.4 mg and 503.4 mg and 361.9 mg and 345.6 mg and 240.6 mg
- DD0113 tumour weight, Mean ([2]; day 40 from inoculum): 499.7 mg
- DD0113 tumour weight, individual mouse ([2]; day 40 from inoculum): 578.4 mg and 652.6 mg and 762.1 mg and 750.9 mg and 531.1 mg and 424.1 mg and 401.6 mg and 244.9 mg and 151.8 mg
- DD0113 tumour weight, Mean ([2]; day 43 from inoculum): 543.1 mg
- DD0113 tumour weight, individual mouse ([2]; day 43 from inoculum): 529.7 mg and 810.5 mg and 868.0 mg and 780.2 mg and 575.9 mg and 420.0 mg and 428.4 mg and 263.0 mg and 212.3 mg
- DD0113 tumour weight, Mean ([2]; day 47 from inoculum): 666.3 mg
- DD0113 tumour weight, individual mouse ([2]; day 47 from inoculum): 623.2 mg and 800.6 mg and 669.1 mg and 636.6 mg and 529.5 mg and 430.2 mg and 224.5 mg
- DD0113 tumour weight, Mean ([2]; day 50 from inoculum): 716.0 mg
- DD0113 tumour weight, individual mouse ([2]; day 50 from inoculum): 561.6 mg and 1194.0 mg and 680.6 mg
- DD0113 tumour weight, Mean ([2]; day 54 from inoculum): 810.3 mg
- DD0113 tumour weight, individual mouse ([2]; day 54 from inoculum): 776.7 mg and 1306.3 mg and 1175.7 mg and 807.3 mg
- DD0113 tumour weight, Mean ([2]; day 58 from inoculum): 958.1 mg
- DD0113 tumour weight, individual mouse ([2]; day 58 from inoculum): 819.5 mg and 1324.9 mg and 1508.4 mg and 1392.3 mg
- DD0113 tumour weight, Mean ([2]; day 62 from inoculum): 1128.5 mg
- DD0113 tumour weight, individual mouse ([2]; day 62 from inoculum): 955.7 mg and 1686.9 mg and 1777.9 mg and 1604.2 mg
- DD0113 tumour weight, Mean ([2]; day 65 from inoculum): 1312.4 mg
- DD0113 tumour weight, individual mouse ([2]; day 65 from inoculum): 960.1 mg and 1836.1 mg and 2144.7 mg and 1949.8 mg and 1415.2 mg
- DD0113 tumour weight, Mean ([2]; day 69 from inoculum): 1491.3 mg
- DD0113 tumour weight, individual mouse ([2]; day 69 from inoculum): 1238.0 mg and 2045.0 mg and 2383.0 mg and 2019.6 mg and 1526.2 mg
- DD0113 tumour weight, Mean ([2]; day 72 from inoculum): 1712.4 mg
- DD0113 tumour weight, individual mouse ([2]; day 72 from inoculum): 1440.5 mg and 2810.6 mg and 2245.9 mg and 1770.1 mg
- DD0113 tumour weight, Mean ([2]; day 75 from inoculum): 1970.8 mg
- DD0113 tumour weight, individual mouse ([2]; day 75 from inoculum): 1747.2 mg and 3155.1 mg and 2700.8 mg and 2034.9 mg
- maximum BWL ([1]; 8 mg/kg, day 33): 5.2%
